Results from US11053204B2, “Pyrimidinyloxy benzene derivatives as herbicides” (FMC Corporation, priority 2015, dated 2021).

Assays:
Type in all cases: in vivo
[1] = tested on: chickweed (common chickweed, Stellaria media); experiment: Test C postemergence, plant response rating; settings: for Chickweed plant response rating: scale 0 to 100 (0 no effect, 100 complete control)
Procedure, shortened: (§1)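 Both timings shared one formulation, a non-phytotoxic solvent mixture with surfactant, and a greenhouse period of 13 to 15 d. Preemergence used seeded loam/sand or silt loam soil, postemergence used 2 to 18 cm plants; visual ratings ran from 0 (no effect) to 100 (complete control).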

[2] = tested on: ryegrass, Italian (Italian ryegrass, Lolium multiflorum); experiment: Test C postemergence, plant response rating; settings: for Ryegrass, Italian plant response rating: scale 0 to 100 (0 no effect, 100 complete control)
Procedure, shortened: as §1

[3] = tested on: waterhemp (common waterhemp, Amaranthus rudis); experiment: Test C postemergence, plant response rating
Procedure, shortened: as §1

[4] = tested on: wheat (winter wheat, Triticum aestivum); experiment: Test C postemergence, plant response rating
Procedure, shortened: as §1

[5] = tested on: galium (catchweed bedstraw, Galium aparine); experiment: Test C postemergence, plant response rating; settings: for Galium plant response rating: scale 0 to 100 (0 no effect, 100 complete control)
Procedure, shortened: as §1

[6] = tested on: soybean (Glycine max); experiment: Test C postemergence, plant response rating; settings: for Soybean plant response rating: scale 0 to 100 (0 no effect, 100 complete control)
Procedure, shortened: as §1

[7] = tested on: oilseed rape (Brassica napus); experiment: Test C postemergence, plant response rating; settings: for Oilseed Rape plant response rating: scale 0 to 100 (0 no effect, 100 complete control)
Procedure, shortened: as §1

[8] = tested on: foxtail, giant (giant foxtail, Setaria faberii); experiment: Test C postemergence, plant response rating; settings: for Foxtail, Giant plant response rating: scale 0 to 100 (0 no effect, 100 complete control)
Procedure, shortened: as §1

[9] = tested on: blackgrass (Alopecurus myosuroides); experiment: Test C postemergence, plant response rating; settings: for Plant response rating, Blackgrass: scale 0 to 100; for Blackgrass plant response rating: scale 0 to 100 (0 no effect, 100 complete control)
Procedure, shortened: as §1

[10] = tested on: corn (Zea mays); experiment: Test A postemergence, visual injury rating; settings: 0 is no effect, 100 is complete control
Procedure, shortened: (§2)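 Injury scores run from 0, no effect, to 100, complete control, judged by eye against untreated plants roughly 10 days after treatment. Chemicals carried a surfactant in a non-phytotoxic solvent and went onto loam–sand soil preemergence or onto one- to two-leaf seedlings postemergence.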

[11] = tested on: galium (catchweed bedstraw, Galium aparine); experiment: Test A postemergence, visual injury rating; settings: 0 is no effect, 100 is complete control
Procedure, shortened: as §2

[12] = tested on: wheat (Triticum aestivum); experiment: Test A postemergence, visual injury rating; settings: 0 is no effect, 100 is complete control
Procedure, shortened: as §2

[13] = tested on: pigweed (Amaranthus retroflexus); experiment: Test A postemergence, visual injury rating; settings: 0 is no effect, 100 is complete control
Procedure, shortened: as §2

[14] = tested on: barnyardgrass (Echinochloa crus-galli); experiment: Test A postemergence, visual injury rating; settings: 0 is no effect, 100 is complete control
Procedure, shortened: as §2

[15] = tested on: ragweed (common ragweed, Ambrosia elatior); experiment: Test A postemergence, visual injury rating; settings: 0 is no effect, 100 is complete control
Procedure, shortened: as §2

[16] = tested on: Italian ryegrass (Lolium multiflorum); experiment: Test A postemergence, visual injury rating; settings: 0 is no effect, 100 is complete control
Procedure, shortened: as §2

[17] = tested on: giant foxtail (Setaria faberii); experiment: Test A postemergence, visual injury rating; settings: 0 is no effect, 100 is complete control
Procedure, shortened: as §2

[18] = tested on: kochia (Kochia scoparia); experiment: Test A postemergence, visual injury rating; settings: 0 is no effect, 100 is complete control
Procedure, shortened: as §2

[19] = tested on: blackgrass (Alopecurus myosuroides); experiment: Test A postemergence, visual injury rating; settings: 0 is no effect, 100 is complete control
Procedure, shortened: as §2

[20] = 125 g ai/ha, scale 0 to 100 (0 no effect, 100 complete control)
[21] = 125 g ai/ha, 0 to 100 scale, approximately 10 days

CCCC(=O)c1c(Oc2ncc(Cl)cn2)cccc1C(F)(F)F [Compound 136]
Plant response rating, Chickweed ([1]; 16 g ai/ha, scale of 0 to 100): 55 | Plant response rating, Chickweed ([1]; 31 g ai/ha, scale 0 to 100): 65 | Chickweed plant response rating ([1]; 62 g ai/ha): 75 | Chickweed plant response rating ([1]; 125 g ai/ha): 80 | Plant response rating, Ryegrass, Italian ([2]; 16 g ai/ha, scale of 0 to 100): 0 | Plant response rating, Ryegrass, Italian ([2]; 31 g ai/ha, scale 0 to 100): 5 | Ryegrass, Italian plant response rating ([2]; 62 g ai/ha): 5 | Ryegrass, Italian plant response rating ([2]; 125 g ai/ha): 10 | Plant response rating, Waterhemp ([3]; 16 g ai/ha, scale of 0 to 100): 70 | Plant response rating, Waterhemp ([3]; 31 g ai/ha, scale 0 to 100): 70 | Waterhemp plant response rating [3, 20]: 75 | Plant response rating, Wheat ([4]; 16 g ai/ha, scale of 0 to 100): 0 | Plant response rating, Wheat ([4]; 31 g ai/ha, scale 0 to 100): 5 | Wheat plant response rating [4, 20]: 5 | Plant response rating, Galium ([5]; 16 g ai/ha, scale of 0 to 100): 50 | Plant response rating, Galium ([5]; 31 g ai/ha, scale 0 to 100): 65 | Galium plant response rating ([5]; 62 g ai/ha): 60 | Galium plant response rating ([5]; 125 g ai/ha): 75 | Plant response rating, Soybean ([6]; 16 g ai/ha, scale of 0 to 100): 30 | Plant response rating, Soybean ([6]; 31 g ai/ha, scale 0 to 100): 40 | Soybean plant response rating ([6]; 62 g ai/ha): 50 | Soybean plant response rating ([6]; 125 g ai/ha): 40 | Plant response rating, Oilseed Rape ([7]; 16 g ai/ha, scale of 0 to 100): 65 | Plant response rating, Oilseed Rape ([7]; 31 g ai/ha, scale 0 to 100): 80 | Oilseed Rape plant response rating ([7]; 62 g ai/ha): 80 | Oilseed Rape plant response rating ([7]; 125 g ai/ha): 80 | Plant response rating, Foxtail, Giant ([8]; 16 g ai/ha, scale of 0 to 100): 10 | Plant response rating, Foxtail, Giant ([8]; 31 g ai/ha, scale 0 to 100): 20 | Foxtail, Giant plant response rating ([8]; 62 g ai/ha): 10 | Foxtail, Giant plant response rating ([8]; 125 g ai/ha): 25 | Plant response rating, Blackgrass ([9]; 16 g ai/ha): 5 | Plant response rating, Blackgrass ([9]; 31 g ai/ha): 10 | Blackgrass plant response rating ([9]; 62 g ai/ha): 10 | Blackgrass plant response rating ([9]; 125 g ai/ha): 15 | Corn plant response rating [10, 21]: 20 | Corn plant response rating (0 to 100 scale) ([10]; 500 g ai/ha): 50 | Galium plant response rating [11, 21]: 40 | Galium plant response rating (0 to 100 scale) ([11]; 500 g ai/ha): 100 | Wheat plant response rating [12, 21]: 10 | Wheat plant response rating (0 to 100 scale) ([12]; 500 g ai/ha): 20 | Pigweed plant response rating [13, 21]: 100 | Pigweed plant response rating (0 to 100 scale) ([13]; 500 g ai/ha): 100 | Barnyardgrass plant response rating [14, 21]: 30 | Barnyardgrass plant response rating (0 to 100 scale) ([14]; 500 g ai/ha): 80 | Ragweed plant response rating [15, 21]: 20 | Ragweed plant response rating (0 to 100 scale) ([15]; 500 g ai/ha): 60 | Ryegrass, Italian plant response rating [16, 21]: 10 | Ryegrass, Italian plant response rating (0 to 100 scale) ([16]; 500 g ai/ha): 70 | Foxtail, Giant plant response rating [17, 21]: 30 | Foxtail, Giant plant response rating (0 to 100 scale) ([17]; 500 g ai/ha): 90 | Kochia plant response rating [18, 21]: 80 | Kochia plant response rating (0 to 100 scale) ([18]; 500 g ai/ha): 100 | Blackgrass plant response rating [19, 21]: 50 | Blackgrass plant response rating (0 to 100 scale) ([19]; 500 g ai/ha): 100
